Target: T1, Broad substrate specificity ATP-binding cassette transporter ABCG2 (Homo sapiens, UniProt Q9UNQ0)
T1 sequence (Q9UNQ0 whole entry): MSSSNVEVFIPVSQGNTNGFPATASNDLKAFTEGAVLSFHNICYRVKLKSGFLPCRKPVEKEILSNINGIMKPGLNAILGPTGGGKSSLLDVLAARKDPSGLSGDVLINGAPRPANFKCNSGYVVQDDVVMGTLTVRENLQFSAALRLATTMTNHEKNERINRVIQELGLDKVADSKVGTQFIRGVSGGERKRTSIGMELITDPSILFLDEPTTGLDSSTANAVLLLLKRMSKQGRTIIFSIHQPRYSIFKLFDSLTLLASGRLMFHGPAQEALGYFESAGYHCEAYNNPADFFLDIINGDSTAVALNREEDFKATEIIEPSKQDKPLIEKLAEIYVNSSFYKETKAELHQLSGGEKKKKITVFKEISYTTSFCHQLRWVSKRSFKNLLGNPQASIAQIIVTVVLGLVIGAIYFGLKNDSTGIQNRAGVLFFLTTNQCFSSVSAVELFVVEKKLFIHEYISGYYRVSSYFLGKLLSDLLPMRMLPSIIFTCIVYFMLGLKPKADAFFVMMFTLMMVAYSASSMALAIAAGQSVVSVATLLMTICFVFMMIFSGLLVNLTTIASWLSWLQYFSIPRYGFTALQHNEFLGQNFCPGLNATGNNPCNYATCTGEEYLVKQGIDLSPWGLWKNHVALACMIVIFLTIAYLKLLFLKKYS
Assay: TP_TRANSPORTER: uptake in BCRP-expressing PC-6 cells
Format: functional, cell-based

Row | SMILES | Activity
1 | CCc1c2c(nc3ccc(O)cc13)-c1cc3c(c(=O)n1C2)COC(=O)[C@]3(O)CC [7-ETHYL-10-HYDROXYCAMPTOTHECIN] | substrate []
2 | CCc1c2c(nc3cc(F)c(OC)cc13)-c1cc3c(c(=O)n1C2)COC(=O)[C@]3(O)CC | substrate []
3 | CCc1c2c(nc3ccc(Cl)cc13)-c1cc3c(c(=O)n1C2)COC(=O)[C@]3(O)CC | substrate []
4 | CCc1c2c(nc3cc(Br)ccc13)-c1cc3c(c(=O)n1C2)COC(=O)[C@]3(O)CC | substrate []
5 | CCc1c2c(nc3ccc(N)cc13)-c1cc3c(c(=O)n1C2)COC(=O)[C@]3(O)CC | substrate []
6 | CCc1c2c(nc3cc(O)ccc13)-c1cc3c(c(=O)n1C2)COC(=O)[C@]3(O)CC | substrate []
7 | CCc1c2c(nc3cc(F)c(O)cc13)-c1cc3c(c(=O)n1C2)COC(=O)[C@]3(O)CC | substrate []
